This note sets out measurements from patent US20200199174A1, “NOVEL FLUORESCENT LABELING METHOD” (priority 2017, published 2020).

SMILES strings stand for the structures.

Data set [1] deals with HeLa cells expressing ECFP-5D4. The data set is described as follows: Long-term-stable fluorescence imaging based on tag/probe binding/dissociation equilibrium. The following applies: 10 nM probe in extracellular fluid, whole cell irradiated with intense excitation light. On the procedure: HeLa cells expressing ECFP-5D4 were immersed for one hour at room temperature in HBS including 10 nM 6SiR-pCOONHMeoNP, and fluorescence imaging thereof was performed without modification of this state with the probe present at a concentration of 10 nM in the extracellular fluid. […] In super-resolution imaging and other fluorescence observation in which photobleaching has hitherto been a serious problem, the tag/probe method developed herein has the revolutionary characteristic of making it possible to obtain a semi-permanent fluorescence signal without limitation by photobleaching.

Data set [2] concerns 5D4 fusion proteins in HeLa cells. The data set is described as follows: Fluorescent labeling of 5D4 fusion proteins expressed in HeLa cells (live cell imaging). The class given is cell-based. On the procedure:
HEK293T cells and HeLa cells were cultured in Dulbecco's Modified Eagle's Medium (DMEM, Wako) including 10% fetal bovine serum (FBS, SIGMA) at a carbon dioxide concentration of 5% and a temperature of 37° C.
Gene transfer into HeLa cells was performed using lipofection. For the HeLa cells under culture in a 24-well dish, 25 μL of Opti-MEM I (GIBCO) to which 0.5 μg of a plasmid had been added was added to a mixed solution of 2 μL of Lipofectamine 2000 (Invitrogen) and 25 μL of Opti-MEM I and incubated for five minutes at room temperature. This mixture was added to 500 μL of a medium 90-100% confluent with HEK293T cells and HeLa cells, and culturing was performed at 37° C. at a carbon dioxide concentration of 5%. Cell concentration was diluted to 1/10 5 to 8 hours after transfection, and cells were re-seeded on a glass dish. Cells were subjected to various imaging experiments after 24 hours had passed since transfection.
Cells were observed using an inverted microscope (IX-71, Olympus) provided with a xenon arc lamp. Images were captured using an EM-CCD camera (iXon EM+, Andor). During acquisition of a 6SiR-DNP fluorescence image, a Cy5-4040C filter set (Semrock) comprising a 608-648 nm excitation light filter, a 660 nm dichroic mirror, and a 672-712 nm absorption filter was used.
During acquisition of a CFP fluorescence image, a U-MCFPHQ filter set (Olympus) comprising a 424-438 nm excitation light filter, a 450 nm dichroic mirror, and a 460-510 nm absorption filter was used. An objective lens (10×NA 0.3, 20×NA 0.75: Olympus) was used for the screening in FIG. 3, and an oil immersion objective lens (100× NA 1.4: Olympus) was used in the observations in FIGS. 5, 8, 9, and 10.
The HeLa cell medium was drawn up and washed with HBS buffer solution (25 mM HEPES, 125 mM NaCl, 2.5 mM KCl, 2 mM CaCl2, 1 mM MgCl2, and 25 mM D-glucose; pH 7.4), and cells were then observed in the HBS buffer solution including 6SiR-DNP at a concentration of 100 nM or 10 nM. Image capture was started 5 minutes after the 6SiR-DNP was added. Images were analyzed using ImageJ (NIH).
5D4 expressed at an arbitrary site in a cell was labeled with 6SiR-DNP, and the ability to observe a fluorescence image using a fluorescence microscope was investigated. When cells expressing only ECFP were loaded with 6SiR-DNP (FIG. 8A), and when ECFP to which 5D4 was added was expressed in cells but the cells were not loaded with 6SiR-DNP, a fluorescence signal due to 6SiR-DNP was not observed (FIG. 8B).
Using a β-tubulin protein as an observation object, a 5D4 fusion protein expression construct was transgenically introduced into a Hela cell. […] An attempt was also made to observe b-actin in the cell. When a fusion protein of β-actin and 5D4 was expressed in a HeLa cell and the cell was observed, a fibrous structure characteristic of β-actin was observed (FIG. 9B). In order to visualize F-actin internal to the cell, an expression construct in which a peptide sequence (Lifeact sequence) for specifically binding to F-actin was added to the N-terminus of 5D4 was transgenically introduced into a HeLa cell. A characteristic fibrous structure was observed that was similar to the structure observed when a fusion protein of β-actin and 5D4 was expressed in the cell (FIG. 9C).

Another data set has as its system 5D4. The data set is described as follows: Fluorescence change characteristics of fluorophore-DNP pair in presence and absence of 5D4. The class given is biochemical, mouse. On the procedure:
The anti-DNP scFv was expressed and purified as a fusion protein of maltose-binding protein. Escherichia coli BL21 (DE3) was transformed with the pMalc5E vector (pMalc5E-scFv) into which the purification object scFv sequence was introduced, and was cultured overnight on an LB medium plate including 100 μg/mL of ampicillin. A single colony was picked up and cultured overnight in 5 mL of a liquid LB medium including 100 μg/mL of ampicillin, and 1 mL of the resultant culture liquid was transferred to 100 mL of LB medium including 100 μg/mL of ampicillin. Shake culturing was performed at 200 rpm and a temperature of 37° C. until an optical density at 600 nm of 0.8 was reached, and after shake culturing was performed for 30 minutes at 15° C., IPTG was added to give a final concentration of 0.5 mM, and shake culturing was continued overnight. The E. coli were recovered after culturing and were disrupted using a sonicator. […] An eluate was replaced with PBS, and yield was quantified by the Bradford method, after which the eluate was subjected to the measurements described below.
RNA was extracted from the hybridomas of the resultant four clones, and cDNA fragments of the variable regions of the light chains and heavy chains of monoclonal antibodies were obtained by reverse transcription. The cDNA fragments of the variable regions of the light chains and heavy chains were connected via a linker sequence by overlap PCR, and scFv constructs were constructed only from subclones (4E10 and 5D4) derived from wells 1E10 and 3B12, respectively. […] The nucleic acid sequence of the cDNA sequence coding for 5D4 was identified by sequencing (SEQ ID NO: 8), an amino acid sequence determined from the result thereof was analyzed using the IMGT database (http://www.imgt.org/), and a […] region was specified (FIG. 4).
This fluorescence characteristic is similar to that of Cy5 dye, which is widely used in fluorescence imaging in cells. In the presence of 5D4, the fluorescence intensity of 6SiR-DNP was increased by a factor of 98 relative to the fluorescence intensity thereof in the absence of 5D4 (FIG. 6B). When fluorescence quantum yield of 6SiR-DNP in a state in which 6SiR-DNP is bound to 5D4 was measured, the fluorescence quantum yield in the presence of an excess of 5D4 was 0.57. This value for the fluorescence quantum yield is large, and is equal to or greater than that of Cy5 (quantum yield=0.2-0.4) and Cy5.5 (quantum yield=0.24), which are also highly versatile fluorescent dyes in cell labeling experiments (Q. Zheng et al., Ultra-stable organic fluorophores for single-molecule research. Chem Soc Rev 43, 1044-1056 (2014).).

The test system of data set [3] is ECFP-5D4 (Y96F) with endoplasmic reticulum localization signal in HeLa cells. The data set is described as follows: Super-resolution imaging by single-molecule localization. The class given is cell-based. The settings on record: 10 nM probe, 640 nm laser, relative to normal fluorescence microscope image. On the procedure: An ECFP-5D4 (Y96F) expression plasmid (pECFP-5D4 (Y96F)-ER) to which an endoplasmic reticulum localization signal sequence was added was introduced to HeLa cells cultured on a 96-well plate, using Lipofectamine 2000. At 20 hours after plasmid introduction, the cells were treated with trypsin/EDTA and stripped, and then re-seeded on a cover glass coated with collagen/poly-L-lysine. At 20 hours after re-seeding, the cells were washed with HBS, loaded with 10 nM 6SiR-DNP, and subjected to super-resolution imaging. A specimen was excited using a 640 nm semiconductor laser, and fluorescence intermittency images of a single molecule were continuously acquired at an exposure of 16 milliseconds by a backside-illuminated cooled EM-CCD camera (iXon, Andor Technology). A centroid position of a bright point of single-molecule fluorescence in each image was determined, and a super-resolution image was reconstructed.

On to `CNC(=O)c1ccc(NCCOCCOCCNC(=O)c2ccc(C(=O)[O-])c(C3=C4C=CC(=[N+](C)C)C=C4[Si](C)(C)c4cc(N(C)C)ccc43)c2)c([N+](=O)[O-])c1` [6SiR-pCOONHMeoNP, 2-(7-(dimethylamino)-3-(dimethylimino)-5,5-dimethyl-3,5-dihydrodibenzo[b,e]silin-10-yl)-4-((2-(2-(2-((4-(methylcarbamoyl)-2-nitrophenyl)amino)ethoxy)ethoxy)ethyl)carbamoyl)benzoate], for which the “fluorescence signal after photobleaching” value in data set [1] is “recovery of the fluorescence signal after photobleaching was observed”.

For `CN(C)c1ccc2c(c1)[Si](C)(C)C1=CC(=[N+](C)C)C=CC1=C2c1cc(C(=O)NCCOCCOCCNc2ccc([N+](=O)[O-])cc2[N+](=O)[O-])ccc1C(=O)[O-]` [Probe 6SiR-DNP, 2-(7-(dimethylamino)-3-(dimethylimino)-5,5-dimethyl-3,5-dihydrodibenzo[b,e]silin-10-yl)-4-((2-(2-(2-((2,4-dinitrophenyl)amino)ethoxy)ethoxy)ethyl)carbamoyl)benzoate], in data set [2] (ECFP-5D4 with localization peptide for nucleus, cell membrane, endoplasmic reticulum, final concentration 0.1 μM), the “fluorescent labeling at targeted intracellular sites” value was “fluorescent labeling at the targeted intracellular sites was accomplished for all the cells”. Further, the “fluorescence image of STIM1-5D4 fusion protein” value in data set [2] (HeLa cell stained with 6SiR-DNP) was “a structure running along the endoplasmic reticulum and microtubules was observed”. Also, the “fluorescence image of tubulin-5D4 fusion protein” value in data set [2] (HeLa cell, 6SiR-DNP present in the extracellular fluid) is “a fibrous structure characteristic of tubulin was observed”. The 6SiR-DNP fluorescence signal result in data set [2] (HeLa cells expressing 5D4 as fusion protein with ECFP) is given as “observed covering the entire cytoplasm”. In data set [2] (cells expressing only ECFP loaded with 6SiR-DNP), the “fluorescence signal due to 6SiR-DNP” value is recorded as “not observed”. Further, the fluorescence quantum yield with 5D4 (bound to 5D4, in the presence of an excess of 5D4) was found to be 0.57. Moreover, in the data set with 5D4 (in the presence of 5D4), the “fluorescence intensity increased by a factor relative to absence of 5D4” value stood at 98. Further, in the data set with 5D4 (when 5D4 was present), the absorption maximum is 653 nm and the fluorescence maximum is recorded as 668 nm. Also, the “super-resolution image of endoplasmic reticulum” value in data set [3] was “visualized with high spatial resolution”.
